The source of these data is US7018999B2, “Methods for the treatment and prevention of pain” (Cephalon, Inc., priority 2001, dated 2006).

The experiment concerns formalin-induced behavioral response. Briefly: formalin-induced behavioral response model (flinching/shaking, licking/biting; phase I and phase II).
[1] abbreviates: dose 3 mg/kg subcutaneously two hours prior to formalin administration.

Consider `CCOCc1ccc2c(c1)c1c3c(c4c(c1n2CCCO)Cc1ccccc1-4)C(=O)NC3` [XV], for which, for the setting “dose 10 mg/kg subcutaneously two hours prior to formalin administration”, the “% Inhibition of Phase II” value amounted to 19 ± 3%.
`C[C@]1(O)C[C@H]2O[C@]1(C)n1c3ccccc3c3c4c(c5c6ccccc6n2c5c31)C(=O)NC4` [XIII]: the “% Inhibition of Phase II” value under setting [1] is 29 ± 5%.
Same read-out and setting: for `O=C1NCc2c1c1c3c4c2c2ccccc2n4C2CC[C@H](O2)C3c2ccccc2-1` (stereo partly drawn) [XIV] the value was 34 ± 3%.
With `CC(C)Oc1ccc2c(c1)CCc1c-2c2c(c3c1[nH]c1ccc(F)cc13)CNC2=O` [VIII], the “% Inhibition of Phase II” value (dose 1 mg/kg subcutaneously two hours prior to formalin administration) was 29 ± 4%.
In the case of `COc1ccc2c(c1)Cc1c-2c2c(c3c4ccccc4n(CCO)c13)CNC2=O` [XVI], the “% Inhibition of Phase II” value under setting [1] was determined as 22 ± 6%.
On the same count and under the same terms, next, `CC(C)Oc1ccc2c(c1)CCc1c-2c2c(c3c4ccccc4n(CCO)c13)CNC2=O` [IX]: 37 ± 3%.
